Test results taken from ChEMBL document CHEMBL1132082, “Nonsteroidal androgen receptor agonists based on 4-(trifluoromethyl)-2H-pyrano[3,2-g]quinolin-2-one” (Bioorg Med Chem Lett, 1999).

What was measured:
Androgen receptor [1] = biological target: T1, Androgen receptor (Homo sapiens, UniProt P10275)
T1 sequence (P10275 whole entry): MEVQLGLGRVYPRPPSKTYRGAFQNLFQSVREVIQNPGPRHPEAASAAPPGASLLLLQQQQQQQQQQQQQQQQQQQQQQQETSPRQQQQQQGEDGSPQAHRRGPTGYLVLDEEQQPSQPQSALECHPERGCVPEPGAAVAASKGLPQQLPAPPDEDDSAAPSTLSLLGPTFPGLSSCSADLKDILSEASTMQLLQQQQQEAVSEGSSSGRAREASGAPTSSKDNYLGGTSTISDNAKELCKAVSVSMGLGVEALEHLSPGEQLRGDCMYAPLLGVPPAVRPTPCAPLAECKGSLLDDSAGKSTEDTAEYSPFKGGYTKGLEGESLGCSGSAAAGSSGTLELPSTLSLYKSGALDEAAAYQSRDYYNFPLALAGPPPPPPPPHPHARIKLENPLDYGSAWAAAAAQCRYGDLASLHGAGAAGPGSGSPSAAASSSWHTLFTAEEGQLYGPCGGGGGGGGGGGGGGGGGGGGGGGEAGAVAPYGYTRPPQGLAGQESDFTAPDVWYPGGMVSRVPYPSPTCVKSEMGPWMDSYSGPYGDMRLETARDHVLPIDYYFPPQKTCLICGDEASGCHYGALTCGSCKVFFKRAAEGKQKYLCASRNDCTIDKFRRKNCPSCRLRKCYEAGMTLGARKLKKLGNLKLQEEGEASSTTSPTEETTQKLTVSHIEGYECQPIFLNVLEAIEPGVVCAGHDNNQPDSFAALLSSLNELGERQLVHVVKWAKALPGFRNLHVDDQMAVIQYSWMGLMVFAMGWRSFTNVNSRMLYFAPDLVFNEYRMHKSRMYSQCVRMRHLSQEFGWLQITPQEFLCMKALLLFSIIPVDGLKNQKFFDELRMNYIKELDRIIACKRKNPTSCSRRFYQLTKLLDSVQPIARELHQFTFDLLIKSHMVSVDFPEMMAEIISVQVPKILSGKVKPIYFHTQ

Progesterone receptor = biological target: T2, Progesterone receptor (Homo sapiens, UniProt P06401); test: (§1) In vitro antagonistic activity against human progesterone receptor (hPR); assay type: functional
T2 sequence (P06401 whole entry): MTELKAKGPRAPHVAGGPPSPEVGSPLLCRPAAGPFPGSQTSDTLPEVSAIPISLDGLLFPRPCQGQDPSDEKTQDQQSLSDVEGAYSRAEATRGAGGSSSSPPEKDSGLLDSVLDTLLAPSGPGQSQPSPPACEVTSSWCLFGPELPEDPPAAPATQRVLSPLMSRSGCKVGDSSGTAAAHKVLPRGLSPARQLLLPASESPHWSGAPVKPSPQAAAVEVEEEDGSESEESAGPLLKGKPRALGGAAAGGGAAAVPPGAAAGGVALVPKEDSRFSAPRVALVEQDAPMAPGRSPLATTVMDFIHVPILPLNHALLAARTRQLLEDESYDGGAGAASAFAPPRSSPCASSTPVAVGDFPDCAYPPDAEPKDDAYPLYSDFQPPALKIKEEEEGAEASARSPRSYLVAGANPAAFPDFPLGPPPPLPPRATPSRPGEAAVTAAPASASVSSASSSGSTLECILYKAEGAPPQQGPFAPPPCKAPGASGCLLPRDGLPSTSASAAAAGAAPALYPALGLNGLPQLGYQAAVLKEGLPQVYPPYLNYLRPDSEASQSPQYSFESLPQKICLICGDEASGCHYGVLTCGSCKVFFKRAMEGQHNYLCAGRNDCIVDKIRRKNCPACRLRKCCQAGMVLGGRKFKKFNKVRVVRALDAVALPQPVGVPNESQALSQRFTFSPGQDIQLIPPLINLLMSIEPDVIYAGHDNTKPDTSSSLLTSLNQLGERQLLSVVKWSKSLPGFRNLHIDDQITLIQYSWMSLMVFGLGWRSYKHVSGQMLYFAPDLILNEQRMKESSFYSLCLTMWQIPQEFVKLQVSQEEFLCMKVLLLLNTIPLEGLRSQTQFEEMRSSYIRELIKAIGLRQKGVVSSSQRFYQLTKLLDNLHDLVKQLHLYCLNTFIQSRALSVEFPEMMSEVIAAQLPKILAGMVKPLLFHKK

Glucocorticoid receptor [2] = biological target: T3, Glucocorticoid receptor (Homo sapiens, UniProt P04150); test: In vitro antagonistic activity against human glucocorticoid receptor (hGR); not active; assay type: functional
T3 sequence (P04150 whole entry): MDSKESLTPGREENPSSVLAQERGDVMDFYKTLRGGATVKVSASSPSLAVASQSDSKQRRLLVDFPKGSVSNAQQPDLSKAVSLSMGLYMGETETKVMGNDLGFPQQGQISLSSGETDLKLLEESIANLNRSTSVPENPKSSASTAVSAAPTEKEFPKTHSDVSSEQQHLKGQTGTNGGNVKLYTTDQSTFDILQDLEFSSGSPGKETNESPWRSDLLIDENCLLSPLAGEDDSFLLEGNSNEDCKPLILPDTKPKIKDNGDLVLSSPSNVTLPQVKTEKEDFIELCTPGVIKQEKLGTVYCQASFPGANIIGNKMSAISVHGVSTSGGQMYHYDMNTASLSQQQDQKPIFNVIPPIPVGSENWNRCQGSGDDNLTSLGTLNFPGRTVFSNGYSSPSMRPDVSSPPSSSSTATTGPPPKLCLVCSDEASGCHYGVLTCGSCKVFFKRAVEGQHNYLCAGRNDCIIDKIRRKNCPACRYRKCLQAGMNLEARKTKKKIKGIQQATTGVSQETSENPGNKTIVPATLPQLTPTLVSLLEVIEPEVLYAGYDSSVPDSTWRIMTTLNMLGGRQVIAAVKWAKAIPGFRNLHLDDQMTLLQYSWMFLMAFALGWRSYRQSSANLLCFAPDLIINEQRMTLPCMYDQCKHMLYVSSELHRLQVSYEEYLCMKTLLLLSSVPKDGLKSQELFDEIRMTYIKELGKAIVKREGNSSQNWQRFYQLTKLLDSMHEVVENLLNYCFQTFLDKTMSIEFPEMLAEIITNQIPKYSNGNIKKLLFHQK

[3] = biological target: T4, Progesterone receptor (Homo sapiens) (UniProt P06401); test: as §1; assay type: functional
T4 sequence (whole entry): T2 sequence (P06401 whole entry)

[4] = biological target: T5, Mineralocorticoid receptor (Homo sapiens, UniProt P08235); test: (§2) In vitro antagonistic activity against human mineralocorticoid receptor (hMR); assay type: functional
T5 sequence (P08235 whole entry): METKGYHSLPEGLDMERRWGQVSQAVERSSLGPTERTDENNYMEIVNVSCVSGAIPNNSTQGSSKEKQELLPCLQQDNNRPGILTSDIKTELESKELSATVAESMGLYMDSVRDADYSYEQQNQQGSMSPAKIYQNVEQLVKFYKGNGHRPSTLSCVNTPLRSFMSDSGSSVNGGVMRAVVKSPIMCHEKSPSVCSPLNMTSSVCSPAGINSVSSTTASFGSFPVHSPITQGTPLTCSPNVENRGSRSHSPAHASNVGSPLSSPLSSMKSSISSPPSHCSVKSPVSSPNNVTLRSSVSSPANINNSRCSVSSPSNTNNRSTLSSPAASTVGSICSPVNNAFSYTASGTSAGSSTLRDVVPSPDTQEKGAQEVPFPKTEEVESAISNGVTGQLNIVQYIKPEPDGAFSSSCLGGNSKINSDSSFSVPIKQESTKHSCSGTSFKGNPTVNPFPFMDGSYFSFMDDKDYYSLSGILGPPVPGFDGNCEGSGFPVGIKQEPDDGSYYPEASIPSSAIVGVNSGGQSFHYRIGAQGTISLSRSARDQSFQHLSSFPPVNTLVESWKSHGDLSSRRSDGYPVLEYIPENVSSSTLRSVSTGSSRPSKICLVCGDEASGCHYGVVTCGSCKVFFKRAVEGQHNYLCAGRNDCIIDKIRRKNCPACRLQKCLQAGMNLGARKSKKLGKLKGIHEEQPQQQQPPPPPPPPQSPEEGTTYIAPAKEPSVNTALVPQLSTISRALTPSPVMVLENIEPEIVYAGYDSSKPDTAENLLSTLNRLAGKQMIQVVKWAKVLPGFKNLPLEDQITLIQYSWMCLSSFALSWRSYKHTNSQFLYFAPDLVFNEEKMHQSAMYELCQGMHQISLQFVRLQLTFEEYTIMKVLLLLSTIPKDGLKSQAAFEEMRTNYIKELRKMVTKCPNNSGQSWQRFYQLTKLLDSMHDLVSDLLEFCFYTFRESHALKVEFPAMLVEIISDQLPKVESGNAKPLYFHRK

Androgen receptor [5] = biological target: T1, Androgen receptor; test: biochemical
Description: In vitro binding affinity at human androgen receptor transfected into COS cells.

Androgen receptor [6] = biological target: T1, Androgen receptor; remark: listed apart in the source
Description: In vitro agonistic activity against human androgen receptor using cotransfection assay in CV-1 cells.

Estrogen receptor [7] = biological target: T6, Estrogen receptor (Homo sapiens, UniProt Q92731+P03372); test: In vitro antagonistic activity against human estrogen receptor (hER); not active; assay type: functional
[8] = biological target: T7, Mineralocorticoid receptor (Homo sapiens) (UniProt P08235); test: as §2; assay type: functional
T7 sequence (whole entry): T5 sequence (P08235 whole entry)

Estrogen receptor [9] = biological target: T6, Estrogen receptor; test: (§3) In vitro antagonistic activity against human estrogen receptor (hER); assay type: functional
Glucocorticoid receptor [10] = biological target: T3, Glucocorticoid receptor; test: In vitro antagonistic activity against human glucocorticoid receptor (hGR); assay type: functional
Estrogen receptor [11] = biological target: T6, Estrogen receptor; test: as §3; assay type: functional; remark: listed apart in the source
Androgen receptor [12] = biological target: T1, Androgen receptor; remark: listed apart in the source
Estrogen receptor [13] = biological target: T6, Estrogen receptor; test: In vitro antagonistic activity against human estrogen receptor (hER); Not active; assay type: functional
[14] = biological target: T5, Mineralocorticoid receptor; test: In vitro antagonistic activity against human mineralocorticoid receptor (hMR); not active; assay type: functional

Row | Compound | IC50 (Androgen receptor [1]) | IC50 (Progesterone receptor) | IC50 (Glucocorticoid receptor [2]) | Efficacy [3] | IC50 [4] | IC50 (Androgen receptor [5]) | EC50 (Androgen receptor [6]) | IC50 (Estrogen receptor [7]) | Efficacy [8] | Efficacy (Estrogen receptor [9]) | IC50 (Glucocorticoid receptor [10]) | IC50 (Estrogen receptor [11]) | EC50 (Androgen receptor [12]) | IC50 (Estrogen receptor [13]) | IC50 [14]
1 | CC1(C)CCc2cc3c(C(F)(F)F)cc(=O)oc3cc2N1 | > 0.01 µM | 0.57 µM | > 10 µM | 84% | 1.5 µM | 0.001 µM | 0.009 µM | > 10 µM | 50% | < 20% |  |  |  |  | 
2 | CC[C@@H]1c2cc3c(C(F)(F)F)cc(=O)oc3cc2NC[C@H]1C (relative stereo) | > 0.01 µM | 0.13 µM |  | 98% | 3 µM | 0.0003 µM | 0.001 µM | > 10 µM | 60% | < 20% | 2.3 µM |  |  |  | 
3 | CCC1CC(C)c2cc3c(C(F)(F)F)cc(=O)oc3cc2N1 (cis isomer) | > 0.01 µM |  |  |  |  | 0.011 µM | 0.008 µM |  |  |  |  |  |  |  | 
4 | CC[C@H]1c2cc3c(C(F)(F)F)cc(=O)oc3cc2NC[C@H]1C (relative stereo) | > 0.01 µM | 0.13 µM |  | 87% | 2.8 µM | 0.002 µM | 0.007 µM |  | 39% | 33% | 0.34 µM | 3.1 µM |  |  | 
5 | CC[C@@H]1CNc2cc3oc(=O)cc(C(F)(F)F)c3cc2[C@H]1CC (stereo in doubt) |  | 0.065 µM |  | 98% | 1.9 µM |  | 0.005 µM |  | 50% | < 20% | 2.8 µM |  | 1.4 µM | > 10 µM | 
6 | CC[C@H]1CNc2cc3oc(=O)cc(C(F)(F)F)c3cc2[C@@H]1CC (stereo in doubt) | > 0.01 µM |  |  |  |  |  | 0.005 µM |  |  |  |  |  |  |  | 
7 | CC[C@H]1C[C@@H](C)Nc2cc3oc(=O)cc(C(F)(F)F)c3cc21 (relative stereo) |  |  |  |  |  | 0.012 µM | 0.027 µM |  |  |  |  |  | 0.016 µM |  | 
8 | O=c1cc(C(F)(F)F)c2cc3c(cc2o1)NCCC3 | > 0.01 µM |  |  |  |  | 0.001 µM | 0.019 µM |  |  |  |  |  |  |  | 
9 | CCC1CCN(C)c2cc3oc(=O)cc(C(F)(F)F)c3cc21 (centres undefined) | > 0.01 µM |  |  |  |  | 0.276 µM | 0.209 µM |  |  |  |  |  |  |  | 
10 | CCC1CC(CC)c2cc3c(C(F)(F)F)cc(=O)oc3cc2N1 (trans isomer) | > 0.01 µM |  |  |  |  | 0.007 µM | 0.026 µM |  |  |  |  |  |  |  | 
11 | CC1=CC(C)(C)Nc2cc3oc(=O)cc(C(F)(F)F)c3cc21 |  | 0.1 µM | > 10 µM | 79% |  |  |  | > 10 µM | < 20% | < 20% |  |  |  |  | > 10 µM
12 | O=c1cc(C(F)(F)F)c2cc3c(cc2o1)NCCC3C(F)(F)C(F)(F)F (centres undefined) | > 0.01 µM |  |  |  |  | 0.005 µM | 0.013 µM |  |  |  |  |  |  |  | 
13 | CCC1CCc2cc3c(C(F)(F)F)cc(=O)oc3cc2N1 (centres undefined) | > 0.01 µM |  |  |  |  | 0.001 µM | 0.007 µM |  |  |  |  |  |  |  | 
